Source: patent US12550885B2, “Red blood cell storage solutions, solution additives, and methods for improving the storage of red blood cells” (University of Cincinnati, priority 2016, dated 2026)

How the values were obtained:
[1] = test system: human pRBCs; assay: Hemolysis (cell-free hemoglobin) in stored human pRBCs; type: cell-based; settings: human pRBCs stored at 4° C., increasing AT concentration
Method: (§1) Human pRBCs were obtained from Hoxworth Blood Bank (Cincinnati, OH) and stored at 4° C. for 42 days according to standard blood banking practice. Murine pRBCs were obtained as previously described. Briefly, donor mice were anesthetized with intraperitoneal pentobarbital (0.1 mg/g body weight) and blood was collected via cardiac puncture into CP2D anticoagulant-coated syringes. CP2D was then added to the whole blood in a 1:7 ratio and gently mixed. Whole blood was centrifuged at 1,000 g for 10 minutes at 4° C. and platelet-rich plasma was discarded. Storage solution (AS-3) was added to erythrocytes in a 2:9 ratio using the original whole blood volume. Units were stored at 4° C. for 14 days.
(§2) Erythrocytes were pelleted from pRBC samples at 2,000 g for 10 minutes at 4° C. The supernatant from this spin was then centrifuged at 10,000 g for 10 minutes at 4° C. to pellet any remaining cells or platelets. The MP-rich supernatant from this second spin was used to characterize MP production and hemolysis. […]
(§3) Hemoglobin in the MP-rich supernatant was quantified using a Coulter AcT diff Analyzer (Beckman Coulter Corp., Brea, CA). Cell size (forward scatter), complexity (side scatter), phosphatidylserine exposure (annexin V positivity), and band 3 protein integrity (eosin-5-maleimide^68) were analyzed using an Attune flow cytometer (Life Technologies, Carlsbad, CA). […]

[2] = test system: mouse pRBCs; assay: Hemolysis (cell-free hemoglobin) in stored mouse pRBCs; type: cell-based; settings: mouse pRBCs stored at 4° C. for 14 days, inhibitor added prior to storage
Method: as §1, §2, §3

[3] = test system: mouse erythrocytes; assay: Erythrocyte characterization by flow cytometry (size, complexity, phosphatidylserine exposure, band 3 integrity); type: cell-based
Method: as §1
Hemoglobin in the MP-rich supernatant was quantified using a Coulter AcT diff Analyzer (Beckman Coulter Corp., Brea, CA). Cell size (forward scatter), complexity (side scatter), phosphatidylserine exposure (annexin V positivity), and band 3 protein integrity (eosin-5-maleimide^68) were analyzed using an Attune flow cytometer (Life Technologies, Carlsbad, CA). Antibodies for ter119, CD235a, CD41, CD45, and Annexin V were acquired from BD Biosciences (San Diego, CA), and eosin-5-maleimide was obtained from Life Technologies (Carlsbad, CA).

[4] = test system: mouse pRBCs; assay: Microparticle formation in stored mouse pRBCs (Nanoparticle Tracking Analysis); type: cell-based; settings: mouse pRBCs stored at 4° C. for 14 days, inhibitor added prior to storage
Method: as §1
(§4) Erythrocytes were pelleted from pRBC samples at 2,000 g for 10 minutes at 4° C. The supernatant from this spin was then centrifuged at 10,000 g for 10 minutes at 4° C. to pellet any remaining cells or platelets. The MP-rich supernatant from this second spin was used to characterize MP production and hemolysis. MPs were pelleted using a 20,000 g spin for 30 minutes at 4° C.

[5] = test system: human pRBCs; assay: Microparticle formation in stored human pRBCs (Nanoparticle Tracking Analysis); type: cell-based; settings: human pRBCs stored at 4° C., increasing doses added prior to storage
Method: as §1, §4

[6] = test system: C57BL/6 mice; assay: Lung inflammation after transfusion of aged pRBCs, histology (edema, Gr1 inflammatory cells, ZO1 tight junctions); type: in vivo, mouse; settings: 200 μl IV aged pRBCs treated with 125 μM AT, lungs taken 6 hours after transfusion
Method: Male C57BL/6 mice aged 8-10 weeks were purchased from Jackson Laboratories, fed standard laboratory diet and water ad libitum, and acclimated for 1 week in climate-controlled conditions with 12 hours light-dark cycles prior to use. Asm-deficient mice (Asm^−/−) on a C57BL/6 background were used and compared to syngenic C57Bl/6 wild type mice as controls. All experiments were approved by the Institutional Animal Care and Use Committee at the University of Cincinnati. To study the effect of AT treatment on lung inflammation following blood transfusion, mice received 200 μl IV injections of pRBCs or MPs. Lungs were taken 6 hours after transfusion for either histologic or Evans blue evaluation. Histologic lung sections were examined for evidence of lung edema with hematoxylin and inflammatory cells with anti-Gr1 antibodies (AbD Serotec, Raleigh, NC). Tight junction integrity was assessed by staining lung slides with Cy3-conjugated anti-ZO1 (Jackson ImmunoResearch, West Grove, PA). Endothelial cell permeability was assessed using the Evans blue method (source). In brief, mice were weighed and injected with 30 mg/kg Evans blue. After 10 minute of circulation time, mice were sacrificed and the pulmonary vasculature was flushed with 10 ml PBS. Lungs were dried at 55° C. for 24 hours and then incubated in 500 μl formamide for 48 hours at 55° C. Evans blue extraction calculated by measuring the optical density at 620 nm and comparing to a standard curve, and values were normalized to dry lung weight.

| Structure (SMILES) | hemolysis (cell-free hemoglobin) [1] | hemolysis (cell-free hemoglobin) [2] | age-related phosphatidylserine expression (annexin V positivity) ([3]; aged mouse erythrocytes) | age-related decrease in cell complexity (side scatter) ([3]; stored mouse erythrocytes) | reduction of band 3 degradation (eosin-5-maleimide) ([3]; stored mouse erythrocytes, 125 μM AT) [%] | age-related decrease in cell size (forward scatter) ([3]; stored mouse pRBCs) | MP formation [4] | MP formation [5] | disruption of tight junctions in the lung (ZO1) [6] | inflammatory cell recruitment to the lungs [6] | lung edema [6] |
| --- | --- | --- | --- | --- | --- | --- | --- | --- | --- | --- | --- |
| CN(C)CCC=C1c2ccccc2CCc2ccccc21 [AT, Amitriptyline] | dose-dependent reduction in hemolysis | dose-dependent reduction in hemolysis | reduced this age-related phosphatidylserine expression in a dose dependent manner | mitigated | ~50 | mitigated | dose-dependent reduction of MP formation | dose-dependent reduction of MP formation | mitigated | greatly reduced | greatly reduced |
| CNCCC(Oc1ccc(C(F)(F)F)cc1)c1ccccc1 (stereo not drawn) [Fluoxetine] |  | reduced hemolysis |  |  |  |  |  |  |  |  |  |
